We go through three compounds from article PMC12692713, “Neuroprotective and Antioxidant Properties of Different Novel Steroid-Derived Nitrones and Oximes on Cerebral Ischemia In Vitro” (International Journal of Molecular Sciences, 2025).

Like-named read-outs stand apart in the source and are kept apart here.

The assay addresses T1, soybean lipoxygenase (LOX) (Glycine max, UniProt P08170).
T1 construct: gene LOX1.1
T1 sequence (P08170 1-839): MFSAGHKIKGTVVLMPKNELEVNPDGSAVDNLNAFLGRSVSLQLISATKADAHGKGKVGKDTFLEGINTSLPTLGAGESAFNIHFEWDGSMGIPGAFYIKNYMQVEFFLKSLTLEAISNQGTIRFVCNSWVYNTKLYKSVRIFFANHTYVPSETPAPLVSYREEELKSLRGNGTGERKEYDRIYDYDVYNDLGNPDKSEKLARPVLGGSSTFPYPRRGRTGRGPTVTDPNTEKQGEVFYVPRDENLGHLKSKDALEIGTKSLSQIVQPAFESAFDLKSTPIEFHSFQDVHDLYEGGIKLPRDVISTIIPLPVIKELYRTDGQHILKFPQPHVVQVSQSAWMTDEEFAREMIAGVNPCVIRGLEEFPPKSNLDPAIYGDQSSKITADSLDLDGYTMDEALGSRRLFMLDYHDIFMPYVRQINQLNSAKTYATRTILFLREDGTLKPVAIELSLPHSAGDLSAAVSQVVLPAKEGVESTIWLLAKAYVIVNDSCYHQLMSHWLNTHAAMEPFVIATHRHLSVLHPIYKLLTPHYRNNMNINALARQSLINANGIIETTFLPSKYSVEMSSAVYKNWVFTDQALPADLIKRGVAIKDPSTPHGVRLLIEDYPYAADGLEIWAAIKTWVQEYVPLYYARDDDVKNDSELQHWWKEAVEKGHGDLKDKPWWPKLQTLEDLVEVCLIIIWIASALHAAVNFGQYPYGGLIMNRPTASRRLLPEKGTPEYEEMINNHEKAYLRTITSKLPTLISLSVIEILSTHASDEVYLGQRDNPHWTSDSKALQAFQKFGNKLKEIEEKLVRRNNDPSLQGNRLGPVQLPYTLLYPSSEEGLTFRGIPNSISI
In words: UV absorbance at […] nm, conversion of sodium linoleate to 13-hydroperoxylinoleic acid, Tris pH […]. The class given is biochemical.

The IC50 is the concentration at which inhibition is half-maximal. With `C#C[C@]1(O)CC[C@H]2[C@@H]3CCC4=CC(=NO)CC[C@]4(C)[C@H]3CC[C@@]21C` (mixture of isomers) [MC2], the IC50 came to 97 ± 1.5 µM.
Still for that read-out and setting: under `C#C[C@]1(O)CC[C@H]2[C@@H]3CCC4=CC(=[N+](C)[O-])CC[C@]4(C)[C@H]3CC[C@@]21C` [MC3] stands 62 ± 0.8 µM.
In the case of `CC#C[C@]1(O)CC[C@H]2[C@@H]3CCC4=CC(=NO)CCC4=C3[C@@H](c3ccc(N(C)C)cc3)C[C@@]21C` [MC4], the IC50 (read-out: LOX Inhibition (% or IC50)) came to 3.8 ± 0.3 µM.
